Experimental data from patent EP0238060B1, “Cephalosporin derivatives, processes for their preparation and antibacterial agents” (Banyu Pharmaceutical Co., Ltd., priority 1986, dated 1987).
Values after ≈ are worked out from the molar mass of the structure shown.

Key:
A.calcoaceticus No. 4 = assay: In vitro antibacterial activity, agar plate dilution method (MIC); type: cell-based; conditions: Acinetobacter calcoaceticus, NO.4, 16 h, read-out: Minimum Inhibitory Concentration (MIC: µg/ml)
C.freundii GN346/16 = assay: as above; type: cell-based; conditions: Citrobacter freundii, GN346, 16 h, read-out: Minimum Inhibitory Concentration (MIC: µg/ml)
C.freundii GN346 = assay: as above; type: cell-based; conditions: Citrobacter freundii, GN346, 16 h, read-out: Minimum Inhibitory Concentration (MIC: µg/ml)
E.cloacae 963 = assay: as above; type: cell-based; conditions: Enterobacter cloacae, 963, 16 h, read-out: Minimum Inhibitory Concentration (MIC: µg/ml)
E.cloacae Nek 39 = assay: as above; type: cell-based; conditions: Enterobacter cloacae, NEK39, 16 h, read-out: Minimum Inhibitory Concentration (MIC: µg/ml)
E.coli CSH(RE45) = assay: as above; type: cell-based; conditions: Escherichia coli, 16 h, read-out: Minimum Inhibitory Concentration (MIC: µg/ml)
E.coli CSH2 (RK1) = assay: as above; type: cell-based; conditions: Escherichia coli, 16 h, read-out: Minimum Inhibitory Concentration (MIC: µg/ml)
E.coli GN5482 = assay: as above; type: cell-based; conditions: Escherichia coli, GN5482, 16 h, read-out: Minimum Inhibitory Concentration (MIC: µg/ml)
E.coli NIHJ JC2 = assay: as above; type: cell-based; conditions: Escherichia coli, NIHJJC2, 16 h, read-out: Minimum Inhibitory Concentration (MIC: µg/ml)
K.oxytoca GN10650 = assay: as above; type: cell-based; conditions: Klebsiella oxytoca, GN10650, 16 h, read-out: Minimum Inhibitory Concentration (MIC: µg/ml)
K.pneumoniae No. 42 = assay: as above; type: cell-based; conditions: Klebsiella pneumoniae, NO.42, 16 h, read-out: Minimum Inhibitory Concentration (MIC: µg/ml)
K.pneumoniae PCI-602 = assay: as above; type: cell-based; conditions: Klebsiella pneumoniae, PCI602, 16 h, read-out: Minimum Inhibitory Concentration (MIC: µg/ml)
M.luteus ATCC9341 = assay: as above; type: cell-based; conditions: Micrococcus luteus, ATCC9341, 16 h, read-out: Minimum Inhibitory Concentration (MIC: µg/ml)
M.morganii GN5407 = assay: as above; type: cell-based; conditions: Morganella morganii, GN5407, 16 h, read-out: Minimum Inhibitory Concentration (MIC: µg/ml)
P.vulgaris HX-19 = assay: as above; type: cell-based; conditions: Proteus vulgaris, HX19, 16 h, read-out: Minimum Inhibitory Concentration (MIC: µg/ml)
P.vulgaris No. 33 = assay: as above; type: cell-based; conditions: Proteus vulgaris, NO.33, 16 h, read-out: Minimum Inhibitory Concentration (MIC: µg/ml)
Ps.aeruginosa AK 109 = assay: as above; type: cell-based; conditions: Pseudomonas aeruginosa, AK109, 16 h, read-out: Minimum Inhibitory Concentration (MIC: µg/ml)
Ps.aeruginosa AKR17 = assay: as above; type: cell-based; conditions: Pseudomonas aeruginosa, AKR17, 16 h, read-out: Minimum Inhibitory Concentration (MIC: µg/ml)
Ps.aeruginosa IFO3445 = assay: as above; type: cell-based; conditions: Pseudomonas aeruginosa, IFO3445, 16 h, read-out: Minimum Inhibitory Concentration (MIC: µg/ml)
S.aureus 209P NIHJ-JC1 = assay: as above; type: cell-based; conditions: Staphylococcus aureus, 16 h, read-out: Minimum Inhibitory Concentration (MIC: µg/ml)
S.aureus BB5703 = assay: as above; type: cell-based; conditions: Staphylococcus aureus, BB5703, 16 h, read-out: Minimum Inhibitory Concentration (MIC: µg/ml)
S.aureus JS1 = assay: as above; type: cell-based; conditions: Staphylococcus aureus, JS1, 16 h, read-out: Minimum Inhibitory Concentration (MIC: µg/ml)
S.epidermidis IAM12012 = assay: as above; type: cell-based; conditions: Staphylococcus epidermidis, IAM12012, 16 h, read-out: Minimum Inhibitory Concentration (MIC: µg/ml)
S.marcescens IAM 1184 = assay: as above; type: cell-based; conditions: Serratia marcescens, IAM1184, 16 h, read-out: Minimum Inhibitory Concentration (MIC: µg/ml)
S.marcescens No. 16-2 = assay: as above; type: cell-based; conditions: Serratia marcescens, NO.162, 16 h, read-out: Minimum Inhibitory Concentration (MIC: µg/ml)
Ps.cepacia 23 = assay: as above; type: cell-based, Pseudomonas cepacia; conditions: Burkholderia cepacia, 23, 16 h, read-out: Minimum Inhibitory Concentration (MIC: µg/ml)
Ps.maltophilia GN 12873 = assay: as above; type: cell-based, Pseudomonas maltophilia; conditions: Stenotrophomonas maltophilia, GN12873, 16 h, read-out: Minimum Inhibitory Concentration (MIC: µg/ml)
[1] = test system: Enterobacter cloacae GN 5797; assay: Induction of β-lactamase by β-lactam antibiotics; type: cell-based
Method: The assay method for induction of β-lactamase by β-latam antibiotics was as follows: The test organism, Enterobacter cloacae GN 5797, was grown overnight in Mueller Hinton broth (Dlfco Laboratories, Detroit, Mich.) at 37°C. The culture was diluted l0-fold into 20 ml of the flesh medium and incubated with shaking at 37°C. After 2 hours of incubation, antibiotics were added to final concentrations of 50 µg/ml, l0 µg/ml and l µg/ml, and the incubation was continued. At l hour intervals after the addition of antibiotic, 5 ml of sample was taken, and immediately added with 0.l ml of 50 mM sodium azide. The cells were harvested and washed with 50 mM phosphate buffer (pH 7.0). The cells were suspended in 5 ml of 50 mM phosphate buffer and disrupted with a sonicater in an ice-water bath. The broken cells were centrifuged at l6,500 G for 40 minutes at 4°C, and the resulting supernatant fluid was used as the crude enzyme. β-Lactamase activity was determined by a spectrophotometric method (Antmicrob. Agents Chemother. 17, 355-358, 1980) with cephaloridine as substrate. The concentration of protein was determined by the method of Lowry (J. Biol. Chem. 193, 265-275, 1951).

CC(C)(O/N=C(\C(=O)NC1C(=O)N2C(C(=O)[O-])=C(C[n+]3ccc4cc(O)c(O)cc4c3)CSC12)c1csc(N)n1)C(=O)O (stereo not drawn) [Ex. 4, 7-[2-(2-aminothiazol-4-yl)-2-(l-carboxy-l-methylethoxyimino)acetamido]-3-(6,7-dihydroxy-2-isoquinolinio)methyl-3-cephem-4-carboxylate]
MIC (A.calcoaceticus No. 4): 0.1 µg/mL (≈ 0.159 µM)
MIC (C.freundii GN346/16): 1.56 µg/mL (≈ 2.48 µM)
MIC (C.freundii GN346): 50 µg/mL (≈ 79.5 µM)
MIC (E.cloacae 963): 0.025 µg/mL (≈ 0.0398 µM)
MIC (E.cloacae Nek 39): 0.025 µg/mL (≈ 0.0398 µM)
MIC (E.coli CSH(RE45)): 0.39 µg/mL (≈ 0.62 µM)
MIC (E.coli CSH2 (RK1)): < 0.006 µg/mL
MIC (E.coli GN5482): 0.39 µg/mL (≈ 0.62 µM)
MIC (E.coli NIHJ JC2): 0.1 µg/mL (≈ 0.159 µM)
MIC (K.oxytoca GN10650): < 0.006 µg/mL
MIC (K.pneumoniae No. 42): 0.025 µg/mL (≈ 0.0398 µM)
MIC (K.pneumoniae PCI-602): < 0.006 µg/mL
MIC (M.luteus ATCC9341): 6.25 µg/mL (≈ 9.94 µM)
MIC (M.morganii GN5407): 0.05 µg/mL (≈ 0.0795 µM)
MIC (P.vulgaris HX-19): < 0.006 µg/mL
MIC (P.vulgaris No. 33): 0.0125 µg/mL (≈ 0.0199 µM)
MIC (Ps.aeruginosa AK 109): 0.2 µg/mL (≈ 0.318 µM)
MIC (Ps.aeruginosa AKR17): 0.78 µg/mL (≈ 1.24 µM)
MIC (Ps.aeruginosa IFO3445): 0.2 µg/mL (≈ 0.318 µM)
MIC (S.aureus 209P NIHJ-JC1): 25 µg/mL (≈ 39.8 µM)
MIC (S.aureus BB5703): 50 µg/mL (≈ 79.5 µM)
MIC (S.aureus JS1): 100 µg/mL (≈ 159 µM)
MIC (S.epidermidis IAM12012): 12.5 µg/mL (≈ 19.9 µM)
MIC (S.marcescens IAM 1184): 0.0125 µg/mL (≈ 0.0199 µM)
MIC (S.marcescens No. 16-2): 0.2 µg/mL (≈ 0.318 µM)
MIC (Ps.cepacia 23): < 0.006 µg/mL
MIC (Ps.maltophilia GN 12873): 1.56 µg/mL (≈ 2.48 µM)
Specific activity (unit/mg protein) ([1]; induced β-lactamase activity of crude enzyme, Concentration 10 µg/ml, Incubation time 3 hr, Substrate: 100 µM of cephaloridine): 0.064 unit/mg protein
β-lactamase inducibility ([1]; measured by Enterobacter cloacae GN 5797): no substantial β-lactamase-inducing activity was observed
